Source: patent US20100138935A1, “Detection of cellular stress” (priority 2004, published 2010)

Columns and labels:
[1] = tested on: HO-1 mRNA; assay: RT-PCR assay of endogenous HO-1 mRNA in HOZ mouse tissue; format: in vivo
Experimental: Analysis of the expression of endogenous genes was carried out by RT-PCR using the ABI Prism 7000 system. For RT-PCR analysis, frozen tissue samples were homogenised using a Polytron PT-mr2100 homogeniser in 1 ml TRI reagent (Sigma). Total RNA for each sample was isolated according to the manufacturer's instructions and RNA pellets stored at −70° C. under 75% ethanol. Each of the RNA pellets was resuspended in RNAase/DNAase free dH2O and quantified using a Genequant RNA/DNA calculator (Amersham). First strand cDNA synthesis was performed for each sample using 2 μg of total RNA and the Protoscript First Strand cDNA Synthesis Kit (New England Biolabs) according to the manufacturer's protocol. Additional steps to degrade RNA following cDNA synthesis were performed. Each sample was diluted to 50 μl with RNAase/DNAase-free dH2O and stored at −20° C.
In order to measure variation in p21 or Haemoxygenase-1 (HO-1) expression it was necessary to include an internal control. Amplification of β-Actin cDNA provides a standard to control for variations on RNA content between samples. The final reactions therefore consisted of two separate reactions (target gene and β-Actin cDNA amplification) performed simultaneously in a single tube. The PCR conditions used were 10 minutes at 95° C. followed by 40 cycles of denaturing for 15 seconds at 95° C. and annealing/extending for 1 minute at 60° C. The primers and probe for the p21 and HO-1 amplification reactions were obtained from ABI (Assay-On-Demand kit). These methods have been pre-validated for the standard conditions used on the ABI Prism 7000 system.
The effects of cadmium chloride on endogenous HO-1 expression were determined by RT-PCR assay of HO-1 mRNA levels in liver and kidney tissue from HOZ mice. […] The bars show relative concentrations of HO-1 mRNA assayed by RT-PCR in brain, kidney and liver tissue of mice that had received 10 mg/kg cadmium chloride 24 hours earlier compared with mice that had received saline and untreated mice. […]

[2] = tested on: HOZ mice; assay: Plasma ALT as a marker of hepatotoxicity in HOZ mice; format: in vivo, mouse
Experimental: Terminal blood samples were taken by cardiac puncture into lithium/heparin-coated tubes for preparation of plasma. Tissues, as defined in each protocol, were routinely dissected as follows:
Following removal into tubes suitable for plasma preparation, venous blood samples were mixed on a roller for 10 minutes then cooled on ice. Red blood cells were removed by centrifugation at 2,000 rpm for 10 minutes at 8-10° C. The supernatant (plasma) was transferred to a second tube and stored at −70° C. until required for analysis.
Plasma samples were analysed for appropriate analytes on a Roche autoanalyser (Cobas Integra 400) according to the manufacturer's instructions. The routine markers measured included: (for liver damage) plasma alanine aminotransferase (ALT), aspartate aminotransferase (AST) and alkaline phosphatase (ALP) and (for kidney damage) plasma creatinine and blood urea nitrogen (BUN).
Two plasma enzyme markers, ALT and AST, were used as markers of hepatotoxicity in HOZ mice treated with cadmium chloride or sodium arsenite. The results of this analysis for HOZ mice treated with 10 mg/kg cadmium chloride are shown in Table 1 and for HOZ mice treated with 2-8 mg/kg cadmium chloride or 13 mg/kg sodium arsenite in Tables 2 and 3.

[Cl][Cd][Cl] [Cadmium Chloride, cadmium chloride]
HO-1 mRNA levels in kidney and liver compared to controls ([1]; 10 mg/kg, after 24 hours): very substantially elevated | HO-1 mRNA in liver versus dose ([1]; both sexes, 0-8 mg/kg, 8 hours): clear dose-response relationship | HO-1 mRNA levels in liver ([1]; highest doses, 24 hours): slightly elevated | ALT ([2]; HOZ mouse, 10 mg/kg i.p., 24 hours): 1834.8 U/L | Plasma ALT ([2]; female, 1 mg/kg, 8 hours): 33.3 u/L | Plasma ALT ([2]; female, 1 mg/kg, 24 hours): 28.2 u/L | Plasma ALT ([2]; female, 2 mg/kg, 8 hours): 22.8 u/L | Plasma ALT ([2]; female, 2 mg/kg, 24 hours): 26.1 u/L | Plasma ALT ([2]; female, 4 mg/kg, 8 hours): 55.6 u/L | Plasma ALT ([2]; female, 4 mg/kg, 24 hours): 23.7 u/L | increase in plasma ALT ([2]; female, 4 mg/kg, after 8 hours): 2.4 fold | increase in ALT ([2]; female, 4 mg/kg, second statement, printed as after 8 hours): ≤ 2 fold | Plasma ALT ([2]; female, 8 mg/kg, 8 hours): 3930.6 u/L | Plasma ALT ([2]; female, 8 mg/kg, 24 hours): 7010.4 u/L | increase in plasma ALT ([2]; female, 8 mg/kg, after 8 hours): 170 fold | increase in plasma ALT ([2]; female, 8 mg/kg, after 24 hours): 275 fold | Plasma ALT ([2]; male, 1 mg/kg, 8 hours): 70.3 u/L | Plasma ALT ([2]; male, 1 mg/kg, 24 hours): 33.1 u/L | Plasma ALT ([2]; male, 2 mg/kg, 8 hours): 21.7 u/L | Plasma ALT ([2]; male, 2 mg/kg, 24 hours): 19.4 u/L | Plasma ALT ([2]; male, 4 mg/kg, 8 hours): 50.4 u/L | Plasma ALT ([2]; male, 4 mg/kg, 24 hours): 74.7 u/L | Plasma ALT ([2]; male, 8 mg/kg, 8 hours): 50.1 u/L | Plasma ALT ([2]; male, 8 mg/kg, 24 hours): 306.3 u/L | increase in ALT ([2]; male, 8 mg/kg, 24 hours after treatment): 7.9 fold | increase in ALT and AST ([2]; male, all other doses and time points): ≤ 2 fold
